Experimental data published in patent publication US6492426B1, “Use of 1-aminoindan derivatives for treatment of mania in bipolar mood disorder” (priority 1999, dated 2002).
Values joined by “and” are separate entries in the source; they are usually repeats but may differ in a detail not shown here. Equal entries are not always repeated.

Test system: amphetamine-induced hyperactivity in rats
Assay: amphetamine-induced hyperactivity model of mania in rats (automated activity monitors)
Format: in vivo, Sprague Dawley rats
Settings: for Effect on amphetamine-induced locomotor activity versus control (ANOVA) / Effect on activity levels of rats (summary) / Effect on amphetamine-induced vertical activity versus control (ANOVA): 75 mg/kg IP; for Effect on amphetamine-induced locomotor activity versus control (ANOVA) / Locomotor activity, 10 min / Effect on amphetamine-induced vertical activity versus control (ANOVA): 19 h and 3 h before testing; for Effect on amphetamine-induced locomotor activity versus control (ANOVA) / Effect on activity levels of rats (summary) / Anti-manic potential from the tested model (conclusion) / Effect on amphetamine-induced vertical activity versus control (ANOVA): result in words; for Effect on activity levels of rats (summary): amphetamine-treated rats; for Anti-manic potential from the tested model (conclusion): based on the tested model and doses; for Locomotor activity, 20 min, mean / Vertical activity, 20 min, mean / Locomotor activity, 30 min, mean / Vertical activity, 30 min, mean / Locomotor activity, 10 min, mean / Vertical activity, 10 min, mean / Locomotor activity, 20-10 min, mean / Vertical activity, 20-10 min, mean / Locomotor activity, 30-20 min, mean / Vertical activity, 30-20 min, mean: group mean n=10; for Locomotor activity, 20 min, mean / Vertical activity, 20 min, mean / Locomotor activity, 30 min, mean / Vertical activity, 30 min, mean / Locomotor activity, 10 min, mean / Vertical activity, 10 min, mean / Locomotor activity, 20-10 min, mean / Vertical activity, 20-10 min, mean / Locomotor activity, 30-20 min, mean / Vertical activity, 30-20 min, mean / Locomotor activity, 10 min / Locomotor activity, 20 min / Vertical activity, 20 min / Locomotor activity, 30 min / Vertical activity, 30 min / Vertical activity, 10 min / Locomotor activity, 20-10 min / Vertical activity, 20-10 min / Locomotor activity, 30-20 min / Vertical activity, 30-20 min: 75 mg/kg IP twice, amphetamine 0.5 mg/kg s.c.; for Locomotor activity, 20 min, mean / Vertical activity, 20 min, mean / Locomotor activity, 20 min / Vertical activity, 20 min: cumulative to 20 min; for Locomotor activity, 30 min, mean / Vertical activity, 30 min, mean / Locomotor activity, 30 min / Vertical activity, 30 min: cumulative to 30 min; for Locomotor activity, 10 min, mean / Vertical activity, 10 min, mean / Locomotor activity, 10 min / Vertical activity, 10 min: first 10 min; for Locomotor activity, 20-10 min, mean / Vertical activity, 20-10 min, mean / Locomotor activity, 20-10 min / Vertical activity, 20-10 min: second 10 min interval; for Locomotor activity, 30-20 min, mean / Vertical activity, 30-20 min, mean / Locomotor activity, 30-20 min / Vertical activity, 30-20 min: third 10 min interval; for Locomotor activity, 10 min / Locomotor activity, 20 min / Vertical activity, 20 min / Locomotor activity, 30 min / Vertical activity, 30 min / Vertical activity, 10 min / Locomotor activity, 20-10 min / Vertical activity, 20-10 min / Locomotor activity, 30-20 min / Vertical activity, 30-20 min: individual rat; for Locomotor activity, 20-10 min / Vertical activity, 20-10 min / Locomotor activity, 30-20 min / Vertical activity, 30-20 min: non cumulative
Protocol: Evaluation of possible anti-bipolar effects of compounds 1 to 4 was effected by an amphetamine-induced hyperactivity model of mania in rats. Each of the compounds was examined in a separate experiment and compared with a control group, treated with the same dose of amphetamine.
Twenty Sprague Dawley rats, weighing 200-250 g served for each of the four (4) experiments. Rats were housed in a colony room with constant temperature (22° C.), 12 h light/dark cycle and free access to food and water. Each experiment consisted of two groups (n=10 per group), one group was treated with the compound (1 to 4) and the other with vehicle solution. In experiments 1-4, the drugs were administered intraperitoneally (IP). All experimental procedures were conducted during the light phase of the light/dark cycle.
Amphetamine (0.5 mg/kg, sub-cutaneous (s.c.), diluted in de-ionized water) was injected into all rats (both groups of each experiment) immediately prior to behavioral testing. In experiments 1 to 4, compounds (R)-N-acetyl aminoindan (1); (S)-N-indanyl glycinamide HCl (2); (rac)-N-(2-aminoacetyl)-1-aminoindan HCl (3); and (S)-N-formyl aminoindan (4) were injected twice intraperitoneally (IP) at a dose of 75 mg/kg, 19 h and 3 h prior to behavioral testing in experiments. All compounds were suspended in a 5% methyl cellulose solution. The vehicle solution was administered to the control animals.
Immediately after amphetamine injection, rats were placed in automated activity monitors and their activity levels were scored every 10 minutes in the 30 minute time span for experiments 1 to 4. Activity scores included separate measurements of horizontal (locomotion) and of vertical (rearing) activity.
Repeated ANOVA measurements were used to examine the effects of compounds 1 to 4 on locomotor and on vertical activity. One factor measured the treatment of the rats using compounds 1 to 4 or the control vehicle; the repeated measure factor was time (three 10 minute intervals). Post hoc LSD (least significant difference) tests were used to determine whether significant differences occurred in different time periods, where relevant.

SMILES	Effect on amphetamine-induced locomotor activity versus control (ANOVA)	Effect on activity levels of rats (summary)	Anti-manic potential from the tested model (conclusion)	Locomotor activity, 20 min, mean	Vertical activity, 20 min, mean	Locomotor activity, 30 min, mean	Vertical activity, 30 min, mean	Locomotor activity, 10 min, mean	Vertical activity, 10 min, mean	Locomotor activity, 20-10 min, mean	Vertical activity, 20-10 min, mean	Locomotor activity, 30-20 min, mean	Vertical activity, 30-20 min, mean	Effect on amphetamine-induced vertical activity versus control (ANOVA)	Locomotor activity, 10 min (HCl)	Locomotor activity, 20 min (HCl)	Vertical activity, 20 min (HCl)	Locomotor activity, 30 min (HCl)	Vertical activity, 30 min (HCl)	Vertical activity, 10 min (HCl)	other results
O=CN[C@H]1CCc2ccccc21 [Compound 4, (S)-N-formyl aminoindan]	significantly reduced amphetamine-induced locomotor activity	reduced the activity levels	show anti-manic potential	1035 counts	24 counts	1523 counts	35 counts	553 counts	17 counts	482 counts	7 counts	488 counts	11 counts	–	–	–	–	–	–	–	Locomotor activity, 10 min: 453 counts and 589 counts and 482 counts and 508 counts and 596 counts and 558 counts and 481 counts and 551 counts and 691 counts and 619 counts; Locomotor activity, 20 min: 919 counts and 1099 counts and 896 counts and 840 counts and 1179 counts and 1113 counts and 923 counts and 988 counts and 1306 counts and 1088 counts; Vertical activity, 20 min: 10 counts and 40 counts and 21 counts and 7 counts and 30 counts and 17 counts and 27 counts and 4 counts and 37 counts and 43 counts; Locomotor activity, 30 min: 1371 counts and 1632 counts and 1253 counts and 1031 counts and 1789 counts and 1730 counts and 1422 counts (2×) and 2061 counts and 1519 counts; Vertical activity, 30 min: 15 counts and 55 counts and 26 counts and 7 counts and 30 counts and 31 counts and 38 counts and 14 counts and 83 counts and 46 counts; Vertical activity, 10 min: 9 counts and 30 counts (2×) and 13 counts and 7 counts and 12 counts (2×) and 21 counts and 3 counts and 34 counts; Locomotor activity, 20-10 min: 466 counts and 510 counts and 414 counts and 332 counts and 583 counts and 555 counts and 442 counts and 437 counts and 615 counts and 469 counts; Vertical activity, 20-10 min: 1 counts (2×) and 10 counts and 8 counts and 0 counts and 18 counts and 5 counts and 6 counts and 3 counts and 13 counts; Locomotor activity, 30-20 min: 452 counts and 533 counts and 357 counts and 191 counts and 610 counts and 617 counts and 499 counts and 434 counts and 755 counts and 431 counts; Vertical activity, 30-20 min: 5 counts (2×) and 15 counts and 0 counts (2×) and 14 counts and 11 counts and 10 counts and 46 counts and 3 counts
Cl.NCC(=O)N[C@H]1CCc2ccccc21 [Compound 2, (S)-N-indanyl glycinamide HCl]	did not have a significant effect	surprisingly increased activity	does not show anti-manic potential	1277.9 counts	96.3 counts	1740.5 counts	125 counts	626 counts	49.3 counts	651.9 counts	47 counts	462.6 counts	28.7 counts	significantly increased the level of vertical activity	531 counts and 603 counts and 604 counts and 619 counts and 663 counts (2×) and 616 counts and 670 counts and 643 counts and 648 counts	1096 counts and 1197 counts and 1334 counts and 1140 counts and 1525 counts and 1508 counts and 1366 counts and 1272 counts and 1325 counts and 1016 counts	51 counts and 133 counts and 62 counts and 84 counts and 101 counts and 236 counts and 118 counts and 50 counts and 70 counts and 58 counts	1547 counts and 1606 counts and 1964 counts and 1598 counts and 1908 counts and 2038 counts and 1670 counts and 1608 counts and 2047 counts and 1419 counts	75 counts and 168 counts and 98 counts and 96 counts and 104 counts and 321 counts and 126 counts and 58 counts and 116 counts and 88 counts	32 counts and 82 counts and 31 counts and 38 counts (3×) and 95 counts and 66 counts and 30 counts and 43 counts	Locomotor activity, 20-10 min (HCl): 565 counts and 594 counts and 730 counts and 521 counts and 862 counts and 892 counts and 696 counts and 629 counts and 677 counts and 353 counts; Vertical activity, 20-10 min (HCl): 19 counts and 51 counts and 31 counts and 46 counts and 63 counts and 141 counts and 52 counts and 12 counts and 40 counts and 15 counts; Locomotor activity, 30-20 min (HCl): 451 counts and 409 counts and 630 counts and 458 counts and 383 counts and 530 counts and 304 counts and 336 counts and 722 counts and 403 counts; Vertical activity, 30-20 min (HCl): 24 counts and 35 counts and 36 counts and 12 counts and 3 counts and 85 counts and 8 counts (2×) and 46 counts and 30 counts
Cl.NCC(=O)NC1CCc2ccccc21 (racemic) [Compound 3, (rac)-N-(2-aminoacetyl)-1-aminoindan HCl]	significantly reduced locomotor activity	reduced the activity levels	show anti-manic potential	1037 counts	32 counts	1397.4 counts	48.3 counts	494.4 counts	23.1 counts	542.6 counts	8.9 counts	360.4 counts	16.3 counts	similar, albeit non-significant, effect	379 counts and 525 counts and 338 counts and 553 counts and 449 counts and 349 counts and 584 counts and 614 counts and 537 counts and 616 counts	1214 counts and 1196 counts and 621 counts and 1303 counts and 862 counts and 663 counts and 1104 counts and 1349 counts and 1095 counts and 963 counts	0 counts and 33 counts and 11 counts and 91 counts and 26 counts and 5 counts and 66 counts (2×) and 1 counts and 21 counts	1678 counts and 1507 counts and 691 counts and 1619 counts and 1112 counts and 917 counts and 1576 counts and 1810 counts and 1758 counts and 1306 counts	1 counts and 35 counts (2×) and 11 counts and 101 counts and 5 counts and 75 counts and 100 counts and 38 counts and 82 counts	0 counts and 17 counts and 7 counts and 27 counts and 11 counts and 5 counts and 36 counts and 58 counts and 16 counts and 54 counts	Locomotor activity, 20-10 min (HCl): 835 counts and 671 counts and 283 counts and 750 counts and 413 counts and 314 counts and 520 counts and 735 counts and 558 counts and 347 counts; Vertical activity, 20-10 min (HCl): 0 counts (2×) and 16 counts and 4 counts and 64 counts and 15 counts and 30 counts and −57 counts and 5 counts and 12 counts; Locomotor activity, 30-20 min (HCl): 464 counts and 311 counts and 70 counts and 316 counts and 250 counts and 254 counts and 472 counts and 461 counts and 663 counts and 343 counts; Vertical activity, 30-20 min (HCl): 1 counts and 2 counts and 0 counts (2×) and 10 counts and 9 counts (2×) and 99 counts and 17 counts and 16 counts
